Patent US9725442B2, “Heterocyclic derivative having PGD2 receptor antagonist activity” (Shionogi & Co., Ltd., priority 2011, dated 2017)
Where two headings read alike, the source gives them in different places.

Assays:
[1] = molecular target: Human DP1 receptor (Homo sapiens (Human), UniProt Q13258); assay: Human DP1 inhibitory activity in DP1-expressing cell (PGD2-induced cAMP); type: cell-based
Description: Compounds were categorized as AA (cAMP is less than 100 nM) and A (cAMP is more than 100 nM and less than 5000 nM) as shown in Table 99 and 100.

[2] = molecular target: T1, CRTH2 (Homo sapiens (Human), UniProt Q9Y5Y4); assay: CRTH2 inhibitory activity in human eosinophil (PGD2 induced eosinophil shape change); type: cell-based; conditions: human peripheral blood, 40 nM PGD2, forward scatter; read-out: IC50, inhibition of PGD2 induced eosinophil shape change
T1 sequence (Q9Y5Y4 whole entry): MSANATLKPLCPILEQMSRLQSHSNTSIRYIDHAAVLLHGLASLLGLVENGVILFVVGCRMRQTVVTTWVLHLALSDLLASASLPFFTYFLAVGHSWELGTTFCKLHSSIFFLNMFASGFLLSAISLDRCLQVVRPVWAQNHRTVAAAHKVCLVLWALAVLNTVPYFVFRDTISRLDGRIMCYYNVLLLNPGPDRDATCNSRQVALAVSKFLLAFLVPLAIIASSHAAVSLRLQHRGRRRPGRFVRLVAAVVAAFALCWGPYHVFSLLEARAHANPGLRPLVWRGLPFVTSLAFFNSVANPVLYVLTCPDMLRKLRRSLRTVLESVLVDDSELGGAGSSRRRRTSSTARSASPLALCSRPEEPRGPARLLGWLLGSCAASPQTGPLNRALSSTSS
Description: CRTH2 inhibitory activity in human eosinophil was determined as inhibitory activity of PGD2 induced eosinophil shape change.
Human peripheral blood was mixed with compounds of the present invention at 37° C. After 5 min, the blood was treated with 40 nM of PGD2 for 10 min and fixed. The blood was hemolyzed and centrifuged. Blood cells were resuspended in PBS and measured forward scatter (FS) using flow cytometer (FACSAria). Inhibition ratio was defined by comparing FS with and without compound, and IC50 for each compound was calculated from inhibitory curve.

[3] = molecular target: T1, CRTH2; assay: CRTH2 receptor binding inhibitory activity ([3H]-PGD2 displacement, membranes of CRTH2-expressing K562 cell); conditions: [3H]-PGD2 displacement, membrane of CRTH2-expressing K562 cell, read-out: Ki
Procedure, shortened: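 Incubation ran 60 min at room temperature using 20 μg/well membrane from CRTH2-expressing K562 cells in pH 7.4 Tris/HCl (50 mM) with 10 mM MgCl2.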

[4] = molecular target: CYP3A4 enzyme expressed in Escherichia coli (Homo sapiens (Human), UniProt P08684); assay: CYP3A4 fluorescent MBI test; type: in vitro ADME; conditions: pre-reaction time 0 or 30 minutes, substrate 7-BFC; read-out: CYP3A4 MBI, difference between IC50 values with and without preincubation
Chain of CYP3A4 enzyme expressed in Escherichia coli (P08684 whole entry): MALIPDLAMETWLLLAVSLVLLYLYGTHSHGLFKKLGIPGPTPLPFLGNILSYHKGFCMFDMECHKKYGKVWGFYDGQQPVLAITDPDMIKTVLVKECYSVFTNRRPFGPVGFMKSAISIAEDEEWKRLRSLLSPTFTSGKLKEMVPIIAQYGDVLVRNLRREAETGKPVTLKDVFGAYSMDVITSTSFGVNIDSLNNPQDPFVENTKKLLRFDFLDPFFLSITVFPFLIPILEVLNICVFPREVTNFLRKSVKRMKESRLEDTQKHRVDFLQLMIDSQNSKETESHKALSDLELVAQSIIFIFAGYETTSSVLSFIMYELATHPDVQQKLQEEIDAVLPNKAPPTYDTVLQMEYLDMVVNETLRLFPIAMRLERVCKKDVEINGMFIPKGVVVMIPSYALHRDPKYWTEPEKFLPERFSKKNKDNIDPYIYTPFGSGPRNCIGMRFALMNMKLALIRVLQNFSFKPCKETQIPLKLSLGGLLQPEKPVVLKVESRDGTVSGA
Description: The CYP3A4 fluorescent MBI test is a test of investigating enhancement of CYP3A4 inhibition of a compound by a metabolism reaction, and the test was performed using, as CYP3A4 enzyme expressed in Escherichia coli and employing, as an index, a reaction in which 7-benzyloxytrifluoromethylcoumarin (7-BFC) is debenzylated by the CYP3A4 enzyme to produce a metabolite, 7-hydroxytrifluoromethylcoumarin (HFC) emitting fluorescent light.
The reaction conditions were as follows: substrate, 5.6 μmol/L 7-BFC; pre-reaction time, 0 or 30 minutes; reaction time, 15 minutes; reaction temperature, 25° C. (room temperature); CYP3A4 content (expressed in Escherichia coli), at pre-reaction […], at reaction […] (at 10-fold dilution); concentration of a compound of the present, 0.625, 1.25, 2.5, 5, 10, 20 μmol/L (six points).
An enzyme in a K-Pi buffer (pH 7.4) and a compound solution of the present invention as a pre-reaction mixture were added to a 96-well plate at the composition of the pre-reaction, a part of it was transferred to another 96-well plate so that it was 1/10 diluted by a substrate in a K-Pi buffer, NADPH as a co-factor was added to initiate a reaction as an index (without preincubation) and, after a predetermined time of a reaction, acetonitrile/0.5 mol/L Tris(trishydroxyaminomethane)=4/1 (V/V) was added to stop the reaction. In addition, NADPH was added to a remaining preincubation solution to initiate a preincubation (with preincubation) and, after a predetermined time of a preincubation, a part was transferred to another plate so that it was 1/10 diluted with a substrate and a K-Pi buffer to initiate a reaction as an index. After a predetermined time of a reaction, acetonitrile/0.5 mol/L Tris(trishydroxyaminomethane)=4/1 (V/V) was added to stop the reaction. For the plate on which each index reaction had been performed, a fluorescent value of 7-HFC which is a metabolite was measured with a fluorescent plate reader. (Ex=420 nm, Em=535 nm).

[5] = Metabolism stability test; type: in vitro ADME; conditions: human liver microsomes, 30 minutes, 37° C., NADPH, 0.5 μmol/L of the compound
Description: Using a commercially available pooled human hepatic microsomes, a compound of the present invention was reacted for a constant time, a remaining rate was calculated by comparing a reacted sample and an unreacted sample, thereby, a degree of metabolism in liver was assessed.
A reaction was performed (oxidative reaction) at 37° C. for 0 minute or 30 minutes in the presence of 1 mmol/L NADPH in 0.2 mL of a buffer (50 mmol/L Tris-HCl pH 7.4, 150 mmol/L potassium chloride, 10 mmol/L magnesium chloride) containing 0.5 mg protein/mL of human liver microsomes. After the reaction, 50 μL of the reaction mixture was added to 100 μL of a methanol/acetonitrile=1/1 (v/v), mixed and centrifuged at 3000 rpm for 15 minutes. The compound of the present invention in the supernatant was quantified by LC/MS/MS, and a remaining amount of the compound of the present invention after the reaction was calculated, letting a compound amount at 0 minute reaction time to be 100%. Glucuronidation reaction was in the presence of 5 mM UDP-glucuronic acid in place of NADPH, followed by similar operations.

[6] = molecular target: T1, CRTH2; assay: CRTH2 inhibitory activity in CRTH2-expressing cells (PGD2-induced intracellular calcium increase, K562); type: cell-based; conditions: 200 nM PGD2, read-out: IC50, inhibition of intracellular calcium concentration increase induced by PGD2
Description: CRTH2 inhibitory activities of compounds were determined as inhibition activity of intra-cellular calcium concentration increase induced by PGD2 in CRTH2-expressing cells.
CRTH2-expressing K562 cells were suspended at concentration of 2×10^6 cells/ml in buffer (10 mM HEPES, pH 7.4, 0.1% Bovine serum albumin). Cells were incubated with […] (4 μM) for 30 min at room temperature. Cells were washed, resuspended and mixed with various concentration of compounds of the present invention. After 2 min, cells were treated with 200 nM of PGD2. Then intracellular calcium concentration was measured using intracellular ion analyzer (FDSS3000). Inhibition ratio was defined by comparing intracellular calcium concentration increase with and without compound, and IC50 for each compound was calculated from inhibitory curve.

[7] = molecular target: DP receptor (Homo sapiens (Human), UniProt Q13258); assay: DP inhibitory activity in human platelets (PGD2-induced cAMP increase in platelet rich plasma, HTRF); type: cell-based; conditions: IC50 of PGD2 (300 nM)-induced cAMP increase, read-out: PRP
Chain of DP receptor (Q13258 whole entry): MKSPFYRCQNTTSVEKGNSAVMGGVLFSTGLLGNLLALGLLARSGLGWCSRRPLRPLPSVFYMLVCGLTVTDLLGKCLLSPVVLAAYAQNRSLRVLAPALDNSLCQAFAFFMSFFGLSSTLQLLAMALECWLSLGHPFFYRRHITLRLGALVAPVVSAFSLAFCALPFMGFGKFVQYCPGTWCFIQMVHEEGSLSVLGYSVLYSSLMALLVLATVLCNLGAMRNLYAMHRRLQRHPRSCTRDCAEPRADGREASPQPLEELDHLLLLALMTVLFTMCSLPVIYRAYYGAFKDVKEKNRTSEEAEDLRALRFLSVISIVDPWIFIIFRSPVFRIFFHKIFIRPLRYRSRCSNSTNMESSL
Description: Thirty milliliter of blood was drown from healthy human into a syringe preloaded with 1/9 volume of 3.8% citrate sodium. The blood was centrifuged with 180 g for 10 min at room temperature and the upper plasma layer was collected as platelet rich plasma (PRP). The PRP was transferred to plate and treated with 3-isobutyl-1-methylxanthin (IBMX; […]) for 5 min. Then the compounds of the present invention were added to the plate and after 10 min, 300 nM of PGD2 was added. The reaction was stopped with 1 mmol/l hydrogenchlolide after 2 min of PGD2 addition, and platelet was lysed by adding 12% Triton X-100. The concentration of cAMP in the supernatant of the platelet lysate was quantified using homogenous time resolved fluorescence (HTRF). Inhibition ratio was defined by cAMP increase with and without compound, and […] for each compound was calculated from inhibitory curve.

[8] = molecular target: CYP3A4 (Homo sapiens (Human), UniProt P08684); assay: CYP inhibition test, terfenedine hydroxylation; type: in vitro ADME; conditions: pooled human hepatic microsome, 1 μmol/L terfenedine
Chain of CYP3A4 (P08684 whole entry): as the sequence (P08684 whole entry) above
From the text: (§1) Using commercially available pooled human hepatic microsome, and employing, as markers, 7-ethoxyresorufin O-deethylation (CYP1A2), tolbutamide methyl-hydroxylation (CYP2C9), mephenyloin 4′-hydroxylation (CYP2C19), dextromethorphan O-demethylation (CYP2D6), and terfenedine hydroxylation as typical substrate metabolism reactions of human main five CYP enzyme forms (CYP1A2, 2C9, 2C19, 2D6, 3A4), an inhibitory degree of each metabolite production amount by a compound of the present compound was assessed.
(§2) The reaction conditions were as follows: substrate, 0.5 μmol/L ethoxyresorufin (CYP1A2), 100 μmol/L tolbutamide (CYP2C9), 50 μmol/L S-mephenyloin (CYP2C19), 5 μmol/L dextromethorphan (CYP2D6), 1 μmol/L terfenedine (CYP3A4); reaction time, 15 minutes; reaction temperature, 37° C.; enzyme, pooled human hepatic microsome 0.2 mg protein/mL; concentration of a compound of the present invention, 1, 5, 10, 20 μmol/L (four points).
(§3) Each five kinds of substrates, human hepatic microsome, or a compound of the present invention in 50 mM Hepes buffer as a reaction mixture was added to a 96-well plate at the composition as described above, NADPH, as a cofactor was added to initiate metabolism reactions as markers and. After the incubation at 37° C. for 15 minutes, a methanol/acetonitrile=1/1 (v/v) solution was added to stop the reaction. After the centrifugation at 3000 rpm for 15 minutes, resorufin (CYP1A2 metabolite) in the supernatant was quantified by a fluorescent multilabel counter and tolbutamide hydroxide (CYP2C9 metabolite), mephenyloin 4′ hydroxide (CYP2C19 metabolite), dextrorphan (CYP2D6 metabolite), and terfenadine alcohol (CYP3A4 metabolite) were quantified by LC/MS/MS.

[9] = molecular target: CYP2D6 (Homo sapiens (Human), UniProt P10635); assay: CYP inhibition test, dextromethorphan O-demethylation; type: in vitro ADME; conditions: pooled human hepatic microsome, 5 μmol/L dextromethorphan
Chain of CYP2D6 (P10635 whole entry): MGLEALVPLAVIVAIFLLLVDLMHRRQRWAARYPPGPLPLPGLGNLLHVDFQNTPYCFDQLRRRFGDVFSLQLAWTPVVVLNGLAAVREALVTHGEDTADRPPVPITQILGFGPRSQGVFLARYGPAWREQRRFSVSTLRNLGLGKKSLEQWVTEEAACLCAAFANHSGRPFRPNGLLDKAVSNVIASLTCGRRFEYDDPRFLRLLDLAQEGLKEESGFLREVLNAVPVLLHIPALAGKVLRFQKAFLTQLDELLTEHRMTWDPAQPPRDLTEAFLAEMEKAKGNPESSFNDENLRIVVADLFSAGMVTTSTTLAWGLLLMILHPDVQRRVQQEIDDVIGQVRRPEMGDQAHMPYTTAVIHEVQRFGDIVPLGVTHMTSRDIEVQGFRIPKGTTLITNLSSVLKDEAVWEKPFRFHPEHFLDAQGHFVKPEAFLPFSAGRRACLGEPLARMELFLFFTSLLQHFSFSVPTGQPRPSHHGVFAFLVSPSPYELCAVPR
From the text: as §1, §2, §3

[10] = molecular target: CYP1A2 (Homo sapiens (Human), UniProt P05177); assay: CYP inhibition test, 7-ethoxyresorufin O-deethylation; type: in vitro ADME; conditions: pooled human hepatic microsome, 0.5 μmol/L ethoxyresorufin
Chain of CYP1A2 (P05177 whole entry): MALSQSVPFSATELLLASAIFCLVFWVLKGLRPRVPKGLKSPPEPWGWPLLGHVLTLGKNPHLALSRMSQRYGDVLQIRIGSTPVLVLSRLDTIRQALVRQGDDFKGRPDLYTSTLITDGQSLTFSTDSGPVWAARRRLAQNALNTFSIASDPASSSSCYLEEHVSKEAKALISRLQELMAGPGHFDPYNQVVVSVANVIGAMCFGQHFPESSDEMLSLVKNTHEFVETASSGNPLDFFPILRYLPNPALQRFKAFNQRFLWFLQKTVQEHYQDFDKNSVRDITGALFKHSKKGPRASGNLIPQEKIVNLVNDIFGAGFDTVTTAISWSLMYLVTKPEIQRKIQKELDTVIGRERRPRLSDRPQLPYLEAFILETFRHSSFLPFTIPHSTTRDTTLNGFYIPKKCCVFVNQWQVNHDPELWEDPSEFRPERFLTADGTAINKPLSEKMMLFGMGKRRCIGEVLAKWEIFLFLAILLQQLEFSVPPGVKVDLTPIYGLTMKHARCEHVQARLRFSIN
From the text: as §1, §2, §3

[11] = Solubility test (1% DMSO addition, artificial intestinal juice pH 6.8); type: physicochemical; conditions: fassgf or other biorelevant, kinetic from dmso stock, artificial intestinal juice pH 6.8, 16 hours at 25° C.
Description: A 10 mmol/L solution of the compound of the present invention is prepared with DMSO, and 6 μL of the compound solution is added to 594 μL of an artificial intestinal juice (water and 118 mL of 0.2 mol/L NaOH reagent are added to 250 mL of 0.2 mol/L potassium dihydrogen phosphate reagent to reach 1000 mL) with a pH of 6.8. The mixture is left standing for 16 hours at 25° C., and the mixture is vacuum-filtered. The filtrate is two-fold diluted with methanol/water=1/1 (V/V), and the compound concentration in the filtrate is measured with HPLC or LC/MS/MS by the absolute calibration method.

[12] = molecular target: CYP2C19 (Homo sapiens (Human), UniProt P33261); assay: CYP inhibition test, mephenyloin 4'-hydroxylation; type: in vitro ADME; conditions: pooled human hepatic microsome, 50 μmol/L S-mephenyloin
Chain of CYP2C19 (P33261 whole entry): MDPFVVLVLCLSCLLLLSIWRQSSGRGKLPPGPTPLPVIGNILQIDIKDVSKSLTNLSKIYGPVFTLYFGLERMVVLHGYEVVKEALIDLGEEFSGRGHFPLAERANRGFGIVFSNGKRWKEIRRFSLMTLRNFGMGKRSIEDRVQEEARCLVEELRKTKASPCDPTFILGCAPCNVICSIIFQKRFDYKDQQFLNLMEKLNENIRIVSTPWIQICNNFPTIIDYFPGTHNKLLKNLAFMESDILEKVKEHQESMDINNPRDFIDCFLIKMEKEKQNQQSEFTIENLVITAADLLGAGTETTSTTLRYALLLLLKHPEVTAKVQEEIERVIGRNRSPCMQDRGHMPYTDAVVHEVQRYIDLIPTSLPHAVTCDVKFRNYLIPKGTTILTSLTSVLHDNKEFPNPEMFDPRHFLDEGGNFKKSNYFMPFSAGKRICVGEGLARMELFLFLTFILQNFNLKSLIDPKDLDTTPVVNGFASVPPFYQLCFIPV
From the text: as §1, §2, §3

[13] = molecular target: CYP2C9 (Homo sapiens (Human), UniProt P11712); assay: CYP inhibition test, tolbutamide methyl-hydroxylation; type: in vitro ADME; conditions: pooled human hepatic microsome, 100 μmol/L tolbutamide
Chain of CYP2C9 (P11712 whole entry): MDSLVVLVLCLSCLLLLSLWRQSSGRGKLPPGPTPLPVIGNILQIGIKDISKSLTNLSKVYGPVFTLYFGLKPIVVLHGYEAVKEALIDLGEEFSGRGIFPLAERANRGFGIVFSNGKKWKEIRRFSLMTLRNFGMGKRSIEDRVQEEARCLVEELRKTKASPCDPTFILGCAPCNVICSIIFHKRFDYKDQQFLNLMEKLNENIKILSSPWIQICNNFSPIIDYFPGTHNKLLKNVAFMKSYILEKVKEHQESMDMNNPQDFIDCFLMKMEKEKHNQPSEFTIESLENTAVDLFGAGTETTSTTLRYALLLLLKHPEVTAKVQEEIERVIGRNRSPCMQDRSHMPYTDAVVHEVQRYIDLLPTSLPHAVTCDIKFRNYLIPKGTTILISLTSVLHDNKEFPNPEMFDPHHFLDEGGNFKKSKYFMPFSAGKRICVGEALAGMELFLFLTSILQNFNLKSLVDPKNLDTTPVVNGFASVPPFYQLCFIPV
From the text: as §1, §2, §3

[14] = category of cAMP IC50, human DP1 receptor expressing Jurkut cell
[15] = CRTH2 receptor binding, categorized AAAA/AAA
[16] = IC50 of PGD2 (60 nM)-induced cAMP increase, human DP1 receptor expressing Jurkut cell

Chain of Human DP1 receptor (Q13258 whole entry): as the sequence (Q13258 whole entry) above

Row | IC50 [1, 14] [µM] | IC50 [2] [µM] | Ki [3, 15] [µM] | difference in IC50 with vs without preincubation [4] [µM] | Ki [3] [µM] | IC50 [6] [µM] | Compound | also measured
1 | < 0.1 | 0.013 | < 0.1 |  |  |  | CC(C)Oc1ccc(S(=O)(=O)N2C[C@H](C)[C@@H](n3nc(CC(=O)O)c4ccc(F)cc43)C2)cc1 [Compound I-31] | 
2 | < 0.1 |  | 0.1 to 5 | ≤ 3 |  |  | CC(C)Oc1ccc(S(=O)(=O)N2CC[C@H](n3nc(CC(=O)O)c4ccc(F)cc43)[C@H](C)C2)cc1 [Compound I-75] | remaining rate after reaction (result heading prints '% inhibition') [5]: 99.2%
3 | < 0.1 | 0.06 | < 0.1 |  | 0.0043 | 0.091 | CC(C)Oc1ccc(S(=O)(=O)N2C[C@@H](C)[C@@H](n3nc(CC(=O)O)c4ccc(F)cc43)C2)cn1 [Compound I-123] | IC50 [1, 16]: 0.031 µM; IC50 [7]: 0.12 µM
4 | < 0.1 | 0.046 | < 0.1 |  | 0.0047 | 0.073 | CC(C)Oc1ccc(S(=O)(=O)N2C[C@@H](C)[C@@H](n3nc(CC(=O)O)c4ccc(C(F)(F)F)cc43)C2)cc1 [Compound I-130] | IC50 [1, 16]: 0.01 µM; IC50 [7]: 0.24 µM
5 | < 0.1 |  | 0.1 to 5 |  | 0.68 |  | CC(C)Oc1ccc(S(=O)(=O)N2CC[C@H](n3nc(CC(=O)O)c4ccc(F)cc43)[C@@H](C)C2)cc1 [Compound I-74] | IC50 [8]: > 20 µM; IC50 [9]: > 20 µM; IC50 [10]: > 20 µM; solubility at 16 h [11]: > 50 µM; IC50 [12]: > 20 µM; IC50 [13]: > 20 µM
6 | 0.1 to 5 |  | < 0.1 | ≤ 3 |  |  | Cc1c(CC(=O)O)c2ccccc2n1[C@H]1CN(S(=O)(=O)c2ccc(F)cc2)C[C@H]1C [Compound I-287] | 
7 | < 0.1 | 0.033 | < 0.1 |  | 0.0028 | 0.14 | CC(C)Oc1ccc(S(=O)(=O)N2C[C@H](n3nc(CC(=O)O)c4ccc(F)cc43)[C@@](C)(F)C2)cc1 (racemic) [Compound I-85] | IC50 [1, 16]: 0.019 µM; solubility at 16 h [11]: > 50 µM; IC50 [7]: 0.21 µM
8 | 0.1 to 5 |  | < 0.1 |  | 0.016 |  | CC(C)Oc1ccc(S(=O)(=O)N2C[C@@H](N3CCCC3)[C@@H](n3nc(CC(=O)O)c4ccc(F)cc43)C2)cc1 [Compound I-47] | remaining rate after reaction (result heading prints '% inhibition') [5]: 91.8%
9 | < 0.1 |  | < 0.1 | ≤ 3 |  |  | CCOc1ccc(S(=O)(=O)N2C[C@@H](C)[C@@H](n3c(C)c(CC(=O)O)c4ccccc43)C2)cc1 [Compound I-329] | 
10 | < 0.1 |  | < 0.1 | ≤ 3 |  |  | CCOc1ccc(S(=O)(=O)N2C[C@@H](C)[C@@H](n3cc(CC(=O)O)c4ccc(C#N)cc43)C2)cc1 [Compound I-256] | 

Row | Compound | IC50 [1, 14] [µM] | IC50 [2] [µM] | Ki [3, 15] [µM] | difference in IC50 with vs without preincubation [4] [µM] | Ki [3] [µM] | IC50 [6] [µM] | also measured
11 | CCOc1ccc(S(=O)(=O)N2C[C@@H](C)[C@@H](n3nc(CC(=O)O)c4ccccc43)C2)cc1 [Compound I-97] | < 0.1 | 0.068 | < 0.1 |  | 0.013 | 0.092 | 
